What was measured:
[1] = target: Ribosomal protein S6 kinase alpha-4 (Homo sapiens) (UniProt O75676); test: Inhibition of human full length MSK2 expressed in baculovirus assessed as substrate phosphorylation using fluorescence-labelled peptides as substrate at 0.06 uM after 90 mins by microfluidic peptide phosphorylation assay
[2] = target: T1, Calcium/calmodulin-dependent protein kinase type IV (Homo sapiens) (UniProt Q16566); test: Inhibition of human full length CAMK4 expressed in baculovirus assessed as substrate phosphorylation using fluorescence-labelled peptides as substrate at 0.06 uM after 90 mins by microfluidic peptide phosphorylation assay
T1 sequence (whole entry): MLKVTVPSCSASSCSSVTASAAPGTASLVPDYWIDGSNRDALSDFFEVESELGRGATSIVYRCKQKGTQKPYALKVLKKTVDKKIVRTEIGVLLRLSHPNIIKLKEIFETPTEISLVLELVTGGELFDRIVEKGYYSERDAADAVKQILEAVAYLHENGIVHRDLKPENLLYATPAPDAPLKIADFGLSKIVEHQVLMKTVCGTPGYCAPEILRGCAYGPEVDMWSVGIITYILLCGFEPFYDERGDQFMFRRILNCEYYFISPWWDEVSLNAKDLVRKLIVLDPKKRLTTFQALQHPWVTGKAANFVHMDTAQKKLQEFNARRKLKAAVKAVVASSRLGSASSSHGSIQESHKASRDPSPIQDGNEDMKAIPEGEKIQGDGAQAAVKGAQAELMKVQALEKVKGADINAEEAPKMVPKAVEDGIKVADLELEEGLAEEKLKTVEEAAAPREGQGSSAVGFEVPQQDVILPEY

[3] = target: Insulin-like growth factor 1 receptor (Homo sapiens) (UniProt P08069); test: Inhibition of human IGF1R catalytic domain expressed in baculovirus assessed as substrate phosphorylation using fluorescence-labelled peptides as substrate at 0.06 uM after 90 mins by microfluidic peptide phosphorylation assay
[4] = target: MAP kinase-activated protein kinase 3 (Homo sapiens) (UniProt Q16644); test: Inhibition of human full length MAPKAPK3 expressed in Escherichia coli cell assessed as substrate phosphorylation using fluorescence-labelled peptides as substrate at 70 uM after 90 mins by microfluidic peptide phosphorylation assay
MAP kinase-activated protein kinase 3 (Homo sapiens), sequence (Q16644 whole entry, looked up, canonical isoform): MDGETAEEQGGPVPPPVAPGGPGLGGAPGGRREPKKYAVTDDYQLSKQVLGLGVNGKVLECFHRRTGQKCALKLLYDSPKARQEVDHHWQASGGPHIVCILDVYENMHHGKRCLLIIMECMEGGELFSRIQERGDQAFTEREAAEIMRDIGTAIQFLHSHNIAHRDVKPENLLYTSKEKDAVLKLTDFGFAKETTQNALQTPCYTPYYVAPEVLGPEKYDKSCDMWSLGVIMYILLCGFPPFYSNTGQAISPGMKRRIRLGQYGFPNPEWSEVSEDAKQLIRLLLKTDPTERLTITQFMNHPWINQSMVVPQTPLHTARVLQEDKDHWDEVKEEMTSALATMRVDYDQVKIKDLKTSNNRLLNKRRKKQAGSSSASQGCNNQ

[5] = target: Casein kinase I isoform alpha (Homo sapiens) (UniProt P48729); test: Inhibition of human full length CSNK1A1 expressed in baculovirus assessed as substrate phosphorylation using fluorescence-labelled peptides as substrate at 95 uM after 90 mins by microfluidic peptide phosphorylation assay
Casein kinase I isoform alpha (Homo sapiens), sequence (P48729 2-337 limits assumed): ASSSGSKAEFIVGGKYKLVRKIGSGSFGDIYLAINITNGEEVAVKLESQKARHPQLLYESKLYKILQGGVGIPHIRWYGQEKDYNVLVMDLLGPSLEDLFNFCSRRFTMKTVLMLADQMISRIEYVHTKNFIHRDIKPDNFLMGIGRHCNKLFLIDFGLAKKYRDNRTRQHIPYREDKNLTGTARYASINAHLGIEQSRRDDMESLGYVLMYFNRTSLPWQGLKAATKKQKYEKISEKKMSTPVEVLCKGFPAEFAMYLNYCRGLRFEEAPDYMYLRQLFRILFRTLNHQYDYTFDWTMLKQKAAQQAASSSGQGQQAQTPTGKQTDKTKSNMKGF

[6] = target: Dual specificity tyrosine-phosphorylation-regulated kinase 1A (Rattus norvegicus) (UniProt Q63470); test: Inhibition of rat full length DYRK1a expressed in Escherichia coli cell assessed as substrate phosphorylation using fluorescence-labelled peptides as substrate at 95 uM after 90 mins by microfluidic peptide phosphorylation assay
[7] = target: Tyrosine-protein kinase Lyn (Homo sapiens) (UniProt P07948); test: Inhibition of human full length LYN expressed in baculovirus assessed as substrate phosphorylation using fluorescence-labelled peptides as substrate at 9 uM after 90 mins by microfluidic peptide phosphorylation assay
Tyrosine-protein kinase Lyn (Homo sapiens), sequence (P07948 2-512 limits assumed): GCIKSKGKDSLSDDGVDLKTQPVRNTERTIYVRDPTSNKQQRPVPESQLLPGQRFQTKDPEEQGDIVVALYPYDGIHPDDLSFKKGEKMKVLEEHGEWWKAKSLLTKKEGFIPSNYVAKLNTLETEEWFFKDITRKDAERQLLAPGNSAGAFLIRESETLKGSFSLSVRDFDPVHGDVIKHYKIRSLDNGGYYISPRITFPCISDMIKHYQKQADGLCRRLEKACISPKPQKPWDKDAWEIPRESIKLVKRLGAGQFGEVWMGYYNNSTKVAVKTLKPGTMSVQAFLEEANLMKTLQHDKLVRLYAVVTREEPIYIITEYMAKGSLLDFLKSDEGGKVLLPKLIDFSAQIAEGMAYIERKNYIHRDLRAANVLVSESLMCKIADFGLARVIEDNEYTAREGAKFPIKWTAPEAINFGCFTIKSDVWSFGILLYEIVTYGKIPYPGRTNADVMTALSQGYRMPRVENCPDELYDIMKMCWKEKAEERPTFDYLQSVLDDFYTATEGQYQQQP

[8] = target: Tyrosine-protein kinase Fer (Homo sapiens) (UniProt P16591); test: Inhibition of human FER catalytic domain expressed in baculovirus assessed as substrate phosphorylation using fluorescence-labelled peptides as substrate at 2 uM after 90 mins by microfluidic peptide phosphorylation assay
Tyrosine-protein kinase Fer (Homo sapiens), sequence (P16591 whole entry, looked up, the tested form may be a part, canonical isoform): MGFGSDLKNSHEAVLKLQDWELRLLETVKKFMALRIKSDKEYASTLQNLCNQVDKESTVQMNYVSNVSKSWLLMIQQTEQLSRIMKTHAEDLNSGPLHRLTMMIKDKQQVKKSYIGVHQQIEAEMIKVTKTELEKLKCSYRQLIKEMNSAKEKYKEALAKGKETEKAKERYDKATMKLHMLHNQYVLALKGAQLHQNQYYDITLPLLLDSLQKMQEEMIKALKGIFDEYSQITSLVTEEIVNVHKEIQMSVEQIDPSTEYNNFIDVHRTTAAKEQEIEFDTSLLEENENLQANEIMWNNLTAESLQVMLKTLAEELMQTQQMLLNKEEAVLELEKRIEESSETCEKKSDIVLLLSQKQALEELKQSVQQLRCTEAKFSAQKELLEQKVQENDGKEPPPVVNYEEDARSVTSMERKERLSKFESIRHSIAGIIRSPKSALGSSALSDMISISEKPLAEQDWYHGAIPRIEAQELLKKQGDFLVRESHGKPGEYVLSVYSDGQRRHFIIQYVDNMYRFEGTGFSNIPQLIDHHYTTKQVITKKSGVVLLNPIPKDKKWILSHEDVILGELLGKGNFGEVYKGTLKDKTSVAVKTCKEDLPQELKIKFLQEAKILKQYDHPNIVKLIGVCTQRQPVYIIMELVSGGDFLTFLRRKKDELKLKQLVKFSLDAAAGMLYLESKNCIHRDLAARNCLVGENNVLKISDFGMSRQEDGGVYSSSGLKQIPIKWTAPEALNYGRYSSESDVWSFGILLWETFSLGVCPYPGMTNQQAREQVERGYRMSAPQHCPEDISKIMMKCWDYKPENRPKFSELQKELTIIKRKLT

[9] = target: Casein kinase I isoform delta (Homo sapiens) (UniProt P48730); test: Inhibition of human CK1D catalytic domain expressed in Escherichia coli cell assessed as substrate phosphorylation using fluorescence-labelled peptides as substrate at […] after 90 mins by microfluidic peptide phosphorylation assay
Casein kinase I isoform delta (Homo sapiens), sequence (P48730 whole entry, looked up, the tested form may be a part, canonical isoform): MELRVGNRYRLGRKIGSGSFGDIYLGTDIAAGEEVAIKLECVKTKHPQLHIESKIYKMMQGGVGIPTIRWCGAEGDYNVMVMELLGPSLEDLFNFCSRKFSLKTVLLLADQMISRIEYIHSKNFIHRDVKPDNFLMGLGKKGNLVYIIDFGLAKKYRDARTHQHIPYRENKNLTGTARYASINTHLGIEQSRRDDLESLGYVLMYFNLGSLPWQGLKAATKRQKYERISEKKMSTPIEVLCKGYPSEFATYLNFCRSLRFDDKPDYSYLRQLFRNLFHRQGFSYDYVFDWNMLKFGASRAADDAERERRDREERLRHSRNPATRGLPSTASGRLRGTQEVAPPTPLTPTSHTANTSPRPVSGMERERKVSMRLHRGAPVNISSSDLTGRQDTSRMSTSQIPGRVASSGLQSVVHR

[10] = system: T2, Receptor-type tyrosine-protein kinase FLT3 (Homo sapiens), P36888 [D835Y]; test: Inhibition of human FLT3 D835Y mutant catalytic domain expressed in baculovirus assessed as substrate phosphorylation using fluorescence-labelled peptides as substrate at 8 uM after 90 mins by microfluidic peptide phosphorylation assay
T2 sequence (whole entry): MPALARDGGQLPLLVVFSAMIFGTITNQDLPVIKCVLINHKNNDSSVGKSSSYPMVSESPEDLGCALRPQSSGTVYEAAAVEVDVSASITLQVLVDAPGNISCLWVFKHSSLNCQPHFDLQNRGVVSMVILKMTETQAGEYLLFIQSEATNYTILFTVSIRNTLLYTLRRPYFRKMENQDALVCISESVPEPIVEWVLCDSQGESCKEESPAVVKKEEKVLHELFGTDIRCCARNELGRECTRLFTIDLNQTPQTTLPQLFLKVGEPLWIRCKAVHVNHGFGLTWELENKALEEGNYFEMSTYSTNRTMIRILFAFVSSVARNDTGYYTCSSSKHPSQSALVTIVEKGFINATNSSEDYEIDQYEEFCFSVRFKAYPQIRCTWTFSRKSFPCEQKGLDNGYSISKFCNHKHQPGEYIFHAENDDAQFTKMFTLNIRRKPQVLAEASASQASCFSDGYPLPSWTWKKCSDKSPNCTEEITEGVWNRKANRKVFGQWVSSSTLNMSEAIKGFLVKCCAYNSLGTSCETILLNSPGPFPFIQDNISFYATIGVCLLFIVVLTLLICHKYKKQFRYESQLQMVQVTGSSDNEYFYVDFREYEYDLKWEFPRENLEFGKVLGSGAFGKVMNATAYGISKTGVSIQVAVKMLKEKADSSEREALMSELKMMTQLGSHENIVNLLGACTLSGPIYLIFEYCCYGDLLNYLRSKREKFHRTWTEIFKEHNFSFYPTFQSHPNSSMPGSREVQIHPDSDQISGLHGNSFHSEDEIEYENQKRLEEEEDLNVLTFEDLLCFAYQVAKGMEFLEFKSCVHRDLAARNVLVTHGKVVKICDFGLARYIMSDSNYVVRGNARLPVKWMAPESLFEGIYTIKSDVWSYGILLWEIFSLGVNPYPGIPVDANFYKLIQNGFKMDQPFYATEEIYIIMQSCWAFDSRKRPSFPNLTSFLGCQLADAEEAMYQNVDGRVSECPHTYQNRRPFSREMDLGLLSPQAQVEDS

[11] = target: Ribosomal protein S6 kinase alpha-3 (Homo sapiens) (UniProt P51812); test: Inhibition of human full length RSK2 expressed in baculovirus assessed as substrate phosphorylation using fluorescence-labelled peptides as substrate at 8 uM after 90 mins by microfluidic peptide phosphorylation assay
Ribosomal protein S6 kinase alpha-3 (Homo sapiens), sequence (P51812 whole entry): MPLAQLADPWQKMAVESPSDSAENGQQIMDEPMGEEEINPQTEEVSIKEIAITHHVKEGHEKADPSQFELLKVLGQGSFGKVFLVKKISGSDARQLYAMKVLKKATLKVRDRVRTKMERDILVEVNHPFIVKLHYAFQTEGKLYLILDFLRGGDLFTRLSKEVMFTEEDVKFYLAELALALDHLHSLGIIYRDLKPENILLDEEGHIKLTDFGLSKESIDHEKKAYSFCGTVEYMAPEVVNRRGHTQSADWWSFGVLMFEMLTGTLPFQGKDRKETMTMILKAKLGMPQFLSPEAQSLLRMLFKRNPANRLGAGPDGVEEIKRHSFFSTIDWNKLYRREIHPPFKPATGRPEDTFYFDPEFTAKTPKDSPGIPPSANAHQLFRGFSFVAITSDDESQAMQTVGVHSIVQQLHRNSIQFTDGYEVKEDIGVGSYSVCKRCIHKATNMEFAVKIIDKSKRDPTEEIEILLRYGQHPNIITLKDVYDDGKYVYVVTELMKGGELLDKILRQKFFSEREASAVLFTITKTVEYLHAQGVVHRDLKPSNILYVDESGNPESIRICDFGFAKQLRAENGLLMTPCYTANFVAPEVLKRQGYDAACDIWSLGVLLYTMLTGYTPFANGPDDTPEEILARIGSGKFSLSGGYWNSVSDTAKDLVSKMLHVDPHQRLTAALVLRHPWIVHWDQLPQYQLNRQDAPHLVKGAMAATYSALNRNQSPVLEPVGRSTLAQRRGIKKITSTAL

[12] = target: T1, Calcium/calmodulin-dependent protein kinase type IV (Homo sapiens); test: Inhibition of human full length CAMK4 expressed in baculovirus assessed as substrate phosphorylation using fluorescence-labelled peptides as substrate at 0.1 uM after 90 mins by microfluidic peptide phosphorylation assay

Ribosomal protein S6 kinase alpha-4 (Homo sapiens), sequence (O75676 whole entry, looked up): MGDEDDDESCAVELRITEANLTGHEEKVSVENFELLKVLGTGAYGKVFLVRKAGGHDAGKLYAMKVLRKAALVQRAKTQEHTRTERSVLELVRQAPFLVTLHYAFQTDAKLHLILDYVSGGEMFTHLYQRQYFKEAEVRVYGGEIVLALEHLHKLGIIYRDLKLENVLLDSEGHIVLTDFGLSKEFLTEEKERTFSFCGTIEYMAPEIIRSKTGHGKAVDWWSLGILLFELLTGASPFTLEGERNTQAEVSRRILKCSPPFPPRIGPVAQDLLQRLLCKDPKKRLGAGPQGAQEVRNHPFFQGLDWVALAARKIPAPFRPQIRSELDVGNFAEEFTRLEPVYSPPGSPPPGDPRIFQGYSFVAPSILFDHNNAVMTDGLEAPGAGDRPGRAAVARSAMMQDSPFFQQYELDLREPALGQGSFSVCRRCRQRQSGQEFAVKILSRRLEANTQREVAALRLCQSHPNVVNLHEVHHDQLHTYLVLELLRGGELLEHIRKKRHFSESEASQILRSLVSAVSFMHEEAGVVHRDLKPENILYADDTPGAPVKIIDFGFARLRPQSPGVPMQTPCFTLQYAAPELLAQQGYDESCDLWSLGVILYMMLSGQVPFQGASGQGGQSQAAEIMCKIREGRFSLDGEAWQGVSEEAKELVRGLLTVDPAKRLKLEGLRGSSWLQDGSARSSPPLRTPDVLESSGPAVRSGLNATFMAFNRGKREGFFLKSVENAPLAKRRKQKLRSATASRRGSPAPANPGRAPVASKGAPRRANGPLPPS

NC1(Cc2ccc(Cl)cc2)CCN(c2ncnc3[nH]ccc23)CC1
inhibition [1]: 0% | inhibition [2]: 6% | inhibition [3]: 0%

CNCc1ccc(-c2ncnc3[nH]cnc23)cc1
inhibition [4]: 1.5%

NCCc1ccc(-c2ncnc3[nH]cnc23)cc1
inhibition [5]: 53.5% | inhibition [6]: 79%

NCC1CN(c2ncnc3[nH]c4cnccc4c23)CCO1 (configuration not stated)
inhibition [7]: 42%

NC1CCN(c2ncnc3[nH]ccc23)CC1
inhibition [8]: 13.5%

COC(=O)c1cnc(Nc2cnc(C#N)cn2)cc1NCC1CCNCC1
inhibition [9]: 10.5%

NCC1CCN(c2ncnc3[nH]ccc23)CC1
inhibition [10]: 4.5% | inhibition [11]: 32%

C[C@H](CN(C)C)Oc1nc(Nc2cc3cccc(Cl)c3cn2)cnc1C#N
inhibition [12]: 3.5%
